# Measured values: patent US8758769B2, “Composition for preventing and treating acetaminophen inducing liver injury comprising the protein extract from Porphyra yezoensis” (Pukyong National University Industry Academic Cooperation …, priority 2006, dated 2014)
# Columns and labels:
# liver tissue of a rat = assay: Liver appearance and H&E histology of liver tissue, AAP induced liver injury; assay type: in vivo; settings: rats, AAP 700 mg/kg abdominal administration, 24 hours
# Protocol: For this, the liver tissue of the white rat bred by each experiment group is extracted and lightly washed by the saline solution so that blood is removed. A portion of the liver tissue is cut and then the cut liver tissue is cut into thickness of 0.5 cm and fixed into Bouin fixation solution. Thereafter, the cut liver tissue is inserted into a tissue capsule within 24 hours by using the same fixation solution and fixed again. Thereafter, the fixed tissue is washed, inserted into an autotechnicon, dehydrated in the sequencing concentration alcohol and processed transparently by xylene. At an embedding center, paraffin is infiltrated into the tissue capsule and an embedding process is performed, so that a block is manufactured. The block is cut thinly with thickness of 5[…] by a rotary microtome and the cut blocks are left in a floating thermostat in order to be spreaded fully and then attached onto a clean slide glass. Thereafter, to firmly adhere the slide glass and the tissue cut pieces, the slide glass with the tissue cut pieces is left at a slide warmer maintaining temperature of about 60° C. Finally, to basically observe the arrangement of cell and the morphological change, all tissue pieces are dyed by Hematoxylin & Eosin capable of separately seeing the nucleus and cytoplasm and thereafter, observed by an optical microscopy.
# [1] = test system: DNA within the liver tissue; assay: DNA fragmentation in the liver tissue; assay type: in vivo, rat; settings: rats, AAP 700 mg/kg
# Text: To confirm the modes of the cell apoptosis, DNA within the liver tissue is extracted and then the degree of fragmentation is examined.
# HepG2 liver cell = assay: LDH activity, toxicity of HepG2 liver cell by AAP treatment; assay type: cell-based; settings: HepG2, AAP 10, 20 and 40 mM
# Protocol: To examine the toxicity of the liver cell by the AAP treatment, the activity of LDH is measured. That is, 100[…] per a well with the concentration of 2×10^4 cells/ml is divided into 96-well microplates (palcon, USA) and cultured. After 24 hours, a medium is replaced with an MEM medium including 1% FBS, then cultured again for 24 hours, and thereafter treated by an assay medium of 100[…] and AAP 100[…] (10, 20 and 40 mM). The obtained upper solution of 100[…] is moved into a new 96-well microplate, then 100[…] of the reaction mixture (solution I 250[…]+solution II 11.25[…]) is added to the new 96-well microplate. Thereafter, at the state that the light is intercepted by foil, a reaction is progressed for 30 minutes at 15˜25° C. Thereafter, the absorbance at 490 nm is measured by using an automatic ELIZA reader.
# [2] = test system: caspase-3, PARP, Bcl-2 in liver cell; assay: Western blot of cell apoptosis related proteins in liver cell treated by AAP; assay type: cell-based; settings: liver cell treated by AAP according to the concentration, 24 hours
# Protocol: Through the above results, since it is confirmed that the cell apoptosis of the liver cell is induced by AAP, the liver cell is treated by means of AAP according to the concentration and the western blot is executed to observe the expression modes of the protein related to the cell apoptosis. For this, a cell is cultured at a culture dish of 100-mm diameter until it become a confluent monolayer of a confluent state by a medium containing 10% FBS. Thereafter, the medium is replaced with a serum free medium and cultured for 24 hours. After 24 hours, each sample is treated by a serum free medium added according to the concentration and cultured for 24 hours. The culture solution is removed, then washed by the cold PBS solution, and thereafter the cell is recovered through the cell lysate buffer solution containing 1% triton. After the centrifugal process, 4× Laemmli sample buffer (13.3% SDS, 0.4M Tris, 0.013% bromopheno blue, 40% glycerol, pH 6.5) is added to the obtained upper layer solution by 1× of concentration and then an electrophoresis manner is performed in 12.5% SDS-polyacrylamid gel by means of Mighty Small II Apparatus (Hopper Science Instruments, USA). After the electrophoresis manner, the protein separated into the gel is transferred to Immobilon-P membrane (Milipore corporation, the pore size: 0.1[…], USA) by means of Semi-dry Transfer unit, Sigma, USA), reacted at the room temperature for 2 hours in 1×TBS (Tris-buffered saline; 20 mM Tris-base, 137 mM NaCl, 1M HCl) containing 1% BSA, and thereafter left for a night at 4° C. by a primary antibody. Thereafter, the protein is washed by three times at each 10 minutes by TBS-T (Tris-buffered saline, 0.1% Tween 20) and reacted at the room temperature for 1 hour together with the anti-rabbit or anti-mouse IgG-conjugated horseradish peroxide secondary antibody diluted by 1:20,000. […]
# [3] = rats, mean ± S.D. of 10 per group; AAP 700 mg/kg into the abdominal cavity, seaweed protein orally for two weeks
# Protocol: Animals for the experiment are male rats (body weight of 100±10 g), as Sparague Dawley of four-week-old, obtained from Hyochang science. 10 rats are divided into three groups, respectively (control group, AAP sole administration group and AAP+seaweed protein administration group), bred in row breeding cages for 7 days as a domestication preparation breeding. At this time, the temperature (22±1° C.), humidity (50±10%) and brightness (12 hours, 08˜18:00) of a breeding room are strictly controlled. After performing the domestication preparation breeding, general feed and water are freely supplied and then a saline solution (control group and AAP sole administration group) and the seaweed protein are orally administrated for two weeks. 700 mg/kg of AAP melted by DMSO is administrated into the abdominal cavity and after 24 hours, heads of rats are cut and then a blood-gathering process is performed. […] And the liver is extracted and washed by the saline solution and thereafter the weight thereof is measured and a part thereof is fixed into the bouin solution (picric acid:formalin:glacial acid=15:5:1). […]
# To examine the influence on the liver tissue, liver weight and the change of body weight of the seaweed protein separated and purified at the example 1, the liver tissue of a rat is extracted and its weight is measured.
structure (smiles),measurement,setting,value
"CC(=O)Nc1ccc(O)cc1 [AAP, Acetaminophen]","Colour/appearance of the liver (degree of liver injury, FIG. 2)",liver tissue of a rat,the liver tissue represents the bright brown
same,"Inside of the liver tissue by optical microscopy, H&E dyeing (FIG. 3)",liver tissue of a rat,plural nucleus decomposition positions are observed about the central vein
same,DNA fragmentation in the liver tissue (FIG. 6(B)),[1],a certain DNA fraction is observed
same,Activity of LDH (degree of liver cell injury),HepG2 liver cell,increased in proportion to the AAP concentration
same,"Caspase-3 cleavage/activity (western blot, FIG. 8)",[2],cleaved and then the activity is increased
same,"Expression of Bcl-2 (western blot, FIG. 8)",[2],inhibited according to the increase of the AAP concentration
same,"PARP cleavage (western blot, FIG. 8)",[2],cleaved from 116 kDa to 85 kDa
same,Final body weight,[3],299 ± 14.92 g
same,Weight of liver,[3],10.86 ± 0.9 g
